Experimental data as given in the supplement of paper PMC10307832.

How the values were obtained:
Assay in all cases: relative viability (nuclei count vs DMSO), 5 days (fraction); higher = more cells survive
[1] = compound: C1=CC=C2C(=C1)C=CC(=C2SSC3=C(C=CC4=CC=CC=C43)O)O [IPA-3] + O=C(c1cc(Cc2n[nH]c(=O)c3ccccc23)ccc1F)N1CCN(C(=O)C2CC2)CC1 [Olaparib] (partner 8 µM)
Outline: (§1)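 Dosing by pin tool came one day after lung cancer cell lines were seeded in 1536-well plates, using either one drug or a fixed anchor-drug dose plus five library-drug doses (not always all listed) in √10 steps. After 5 days, nuclei were counted on 4× images. Relative viability is treated-well nuclei count divided by vehicle-well nuclei count, and values are medians of duplicate plates.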

[2] = compound: Cc1ccc(-n2nc(C(C)(C)C)cc2NC(=O)Nc2ccc(OCCN3CCOCC3)c3ccccc23)cc1 [Doramapimod] + CC(=O)c1c(C)c2cnc(Nc3ccc(N4CCNCC4)cn3)nc2n(C2CCCC2)c1=O [Palbociclib] (partner 0.5 µM)
Outline: as §1

[3] = compound: Cc1ccc(-n2nc(C(C)(C)C)cc2NC(=O)Nc2ccc(OCCN3CCOCC3)c3ccccc23)cc1 [Doramapimod] + COc1cc2c(Oc3ccc(NC(=O)C4(C(=O)Nc5ccc(F)cc5)CC4)cc3F)ccnc2cc1OCCCN1CCOCC1 [Foretinib] (partner 0.25 µM)
Outline: as §1

[4] = compound: Cn1c(Nc2ccc(C(F)(F)F)cc2)nc2cc(Oc3ccnc(-c4ncc(C(F)(F)F)[nH]4)c3)ccc21 [RAF265] + Nc1ncn([C@H]2C[C@H](O)[C@@H](CO)O2)c(=O)n1 [Decitabine] (partner 2 µM)
Outline: as §1

| Cell Line | relative viability ([1]; first compound 0.2 µM) | relative viability ([1]; first compound 0.6325 µM) | relative viability ([1]; first compound 2 µM) | relative viability ([1]; first compound 6.325 µM) | relative viability ([1]; first compound 20 µM) | relative viability ([2]; first compound 0.02 µM) | relative viability ([2]; first compound 0.06325 µM) | relative viability ([2]; first compound 0.2 µM) | relative viability ([2]; first compound 0.6325 µM) | relative viability ([2]; first compound 2 µM) | relative viability ([3]; first compound 0.02 µM) | relative viability ([3]; first compound 0.06325 µM) | relative viability ([3]; first compound 0.2 µM) | relative viability ([3]; first compound 0.6325 µM) | relative viability ([3]; first compound 2 µM) | relative viability ([4]; first compound 0.01 µM) | relative viability ([4]; first compound 0.03162 µM) | relative viability ([4]; first compound 0.1 µM) | relative viability ([4]; first compound 0.3162 µM) | relative viability ([4]; first compound 1 µM) |
| --- | --- | --- | --- | --- | --- | --- | --- | --- | --- | --- | --- | --- | --- | --- | --- | --- | --- | --- | --- | --- |
| LOU-NH91 | 0.953 | 0.911 | 0.965 | 0.896 | 1.03 | 0.531 | 0.564 | 0.535 | 0.528 | 0.509 | 1.01 | 0.938 | 1.02 | 1.07 | 0.681 | 0.828 | 0.745 | 0.763 | 0.685 | 0.685 |
| LU99A | 0.304 | 0.268 | 0.291 | 0.277 | 0.249 | 0.38 | 0.365 | 0.379 | 0.426 | 0.313 | 0.791 | 0.781 | 0.914 | 0.801 | 0.724 | 0.814 | 0.842 | 0.652 | 0.477 | 0.302 |
| LXF-289 | 1.22 | 1 | 1.09 | 1.07 | 1.23 | 0.6 | 0.586 | 0.615 | 0.567 | 0.63 | 0.955 | 1.04 | 0.999 | 0.955 | 0.928 | 0.446 | 0.399 | 0.393 | 0.345 | 0.26 |
| NCI-H23 | 0.196 | 0.277 | 0.379 | 0.323 | 0.187 | 0.458 | 0.485 | 0.482 | 0.52 | 0.568 | 0.952 | 1.05 | 0.947 | 1.05 | 0.95 | 0.335 | 0.317 | 0.258 | 0.266 | 0.175 |
| NCI-H322M | 0.91 | 0.786 | 0.817 | 0.776 | 0.746 | 0.458 | 0.492 | 0.483 | 0.554 | 0.486 | 1.11 | 0.913 | 1.08 | 1.05 | 1.05 | 0.704 | 0.667 | 0.593 | 0.495 | 0.395 |
| NCI-H358 | 0.649 | 0.514 | 0.879 | 0.505 | 0.564 | 0.153 | 0.137 | 0.138 | 0.195 | 0.133 | 0.579 | 0.563 | 0.682 | 0.826 | 0.63 | 0.25 | 0.206 | 0.164 | 0.15 | 0.154 |
| NCI-H441 | 0.759 | 0.507 | 0.48 | 0.409 | 0.432 | 0.197 | 0.221 | 0.203 | 0.191 | 0.219 | 1.02 | 0.654 | 0.909 |  | 0.842 | 0.25 | 0.227 | 0.22 | 0.278 | 0.214 |
| NCI-H460 | 0.575 | 0.393 | 0.454 | 0.418 | 0.447 | 0.197 | 0.195 | 0.208 | 0.279 | 0.141 | 1.08 | 1.04 | 1.02 | 1.17 | 0.973 | 0.505 | 0.458 | 0.567 | 0.499 | 0.48 |
| NCI-H520 | 0.322 | 0.278 |  | 0.367 | 0.298 | 0.214 | 0.222 | 0.21 | 0.213 | 0.214 | 0.63 | 0.864 | 0.656 | 0.674 | 0.498 | 0.567 | 0.418 | 0.478 | 0.452 | 0.345 |
| NCI-H647 | 0.725 | 0.496 | 0.59 | 0.196 | 0.0974 | 0.346 | 0.335 | 0.375 | 0.404 | 0.345 | 0.903 | 1.07 | 1.25 | 1.29 | 1.16 | 0.394 | 0.33 | 0.357 | 0.266 | 0.262 |
| NCI-H650 | 0.473 | 0.391 | 0.387 | 0.379 | 0.381 | 0.368 | 0.341 | 0.395 | 0.343 | 0.345 | 1.07 | 1.12 | 1.18 | 1.08 | 1.03 | 0.342 | 0.319 | 0.395 | 0.308 | 0.288 |
| NCI-H661 | 0.784 | 0.705 | 0.786 | 0.716 | 0.738 | 0.447 | 0.407 | 0.404 | 0.427 | 0.39 | 1.05 | 1 | 1.02 | 1.04 | 0.989 | 0.692 | 0.527 | 0.435 | 0.442 | 0.378 |
| NCI-H727 | 0.659 | 0.946 | 0.638 | 0.656 | 0.698 | 0.603 | 0.639 | 0.656 | 0.705 | 0.692 | 0.665 | 0.857 | 0.857 | 1.05 | 0.801 | 0.885 | 0.854 | 0.708 | 0.805 | 0.75 |
| NCI-H838 | 0.904 | 0.723 | 0.776 | 0.667 | 0.735 | 0.218 | 0.217 | 0.203 | 0.225 | 0.199 | 1.01 | 0.993 | 1.08 | 1.21 | 1.01 | 0.516 | 0.49 | 0.494 | 0.466 | 0.391 |
| NCI-H1355 | 0.764 | 0.779 | 0.836 | 0.675 | 0.709 | 0.412 | 0.373 | 0.413 | 0.385 | 0.368 | 0.95 | 0.986 | 0.922 | 0.972 | 0.939 | 0.387 | 0.323 | 0.363 | 0.326 | 0.26 |
| NCI-H1395 | 0.507 | 0.456 | 0.465 | 0.474 | 0.457 | 0.67 | 0.6 | 0.64 | 0.58 | 0.583 | 0.948 | 0.925 | 0.991 | 0.991 | 0.933 | 0.753 | 0.664 | 0.66 | 0.707 | 0.549 |
